From patent US10508120B2, “TYK2 inhibitors and uses thereof” (Nimbus Lakshmi, Inc., priority 2017, dated 2019)

Key:
JAK2 kinase domain (JH1) = JAK2 kinase domain (JH1) (Homo sapiens (Human), UniProt O60674); assay: JAK2 Radioactive Kinase Assay; type: biochemical; conditions: compound at 10 μM; ATP 10 μM; read-out: JAK2 JH1% Inhibition @ 10 μM
How it was run: (§1)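 Values are single-concentration percent inhibition figures. They were obtained with 10 μM compound in a radioactivity-based kinase assay run separately on each enzyme.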

Tyk2 kinase domain (DH1) = Tyk2 kinase domain (DH1) (Homo sapiens (Human), UniProt P29597); assay: Tyk2 Radioactive Kinase Assay; type: biochemical; conditions: compound at 10 μM; ATP 10 μM; read-out: Tyk2 JH1% Inhibition @ 10 μM
How it was run: as §1

[1] = biological target: human TYK2 (JH2domain-pseudokinase) (Homo sapiens (Human), UniProt P29597); assay: TYK2 JH2 Domain Binding Assay (KINOMEscan)
How it was run: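 Displacement of a DNA-tagged TYK2 JH2 fusion (human, aa G556–D888, HEK293 extract, <0.1 nM) from ligand-coated beads over 1 h at RT; binding buffer PBS/0.05% Tween 20/10 mM DTT/0.1% BSA.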

Chain of human TYK2 (JH2domain-pseudokinase) (P29597 556-888): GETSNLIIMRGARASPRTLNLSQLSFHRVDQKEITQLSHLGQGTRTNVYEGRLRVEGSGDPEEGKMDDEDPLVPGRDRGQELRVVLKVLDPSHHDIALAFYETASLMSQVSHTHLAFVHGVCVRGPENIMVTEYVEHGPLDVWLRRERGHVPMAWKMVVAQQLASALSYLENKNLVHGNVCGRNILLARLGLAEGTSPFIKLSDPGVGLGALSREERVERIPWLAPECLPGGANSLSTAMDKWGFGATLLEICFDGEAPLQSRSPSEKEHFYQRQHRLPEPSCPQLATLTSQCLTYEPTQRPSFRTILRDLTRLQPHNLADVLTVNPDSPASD
Chain of JAK2 kinase domain (JH1) (O60674 849-1124): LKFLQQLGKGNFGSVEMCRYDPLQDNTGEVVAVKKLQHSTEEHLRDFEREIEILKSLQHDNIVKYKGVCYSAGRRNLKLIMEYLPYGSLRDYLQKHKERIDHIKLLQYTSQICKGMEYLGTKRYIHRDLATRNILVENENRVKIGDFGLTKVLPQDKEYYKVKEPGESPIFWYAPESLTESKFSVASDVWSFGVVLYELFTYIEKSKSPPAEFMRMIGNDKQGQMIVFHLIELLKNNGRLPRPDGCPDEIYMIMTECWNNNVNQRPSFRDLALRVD
Chain of Tyk2 kinase domain (DH1) (P29597 897-1176): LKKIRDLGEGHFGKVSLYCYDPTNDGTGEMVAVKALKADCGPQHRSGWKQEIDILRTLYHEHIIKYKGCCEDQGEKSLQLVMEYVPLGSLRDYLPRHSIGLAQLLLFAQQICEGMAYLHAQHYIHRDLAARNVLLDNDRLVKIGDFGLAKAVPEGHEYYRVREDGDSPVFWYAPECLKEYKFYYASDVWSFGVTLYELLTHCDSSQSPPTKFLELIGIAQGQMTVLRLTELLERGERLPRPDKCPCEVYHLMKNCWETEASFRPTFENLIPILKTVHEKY

Row | SMILES | inhibition at 10 µM (JAK2 kinase domain (JH1)) [%] | inhibition at 10 µM (Tyk2 kinase domain (DH1)) [%] | Kd [1] [nM]
1 | CNc1cc(Nc2cccn(C3CCN(CC(F)F)CC3)c2=O)nc2c(C(=O)N[C@H]3C[C@H]3F)cnn12 [I-230] | < 50 | < 50 | 0.2 to 1
2 | CNc1cc(Nc2cccn(-c3cccc(C)n3)c2=O)nc2c(C(=O)NC3CC3)cnn12 [I-237] | < 50 | < 50 | < 0.2
3 | CNc1cc(Nc2cccnc2O[C@H]2CC[C@H](O)CC2)nc2c(C(=O)N[C@H]3C[C@H]3F)cnn12 [I-239] | < 50 | < 50 | < 0.2
4 | CNc1cc(Nc2cccn(-c3ccc(C4CC4)nn3)c2=O)nc2c(C(=O)NC3CC3)cnn12 [I-241] | < 50 | < 50 | < 0.2
5 | CNc1cc(Nc2cccn(-c3nccs3)c2=O)nc2c(C(=O)NC3CCC3)cnn12 [I-242] | < 50 | < 50 | < 0.2
6 | CNc1cc(Nc2cccn(-c3ccc(F)cc3)c2=O)nc2c(C(=O)NCC(C)(C)CO)cnn12 [I-245] | < 50 | < 50 | < 0.2
7 | CNc1cc(-c2cn(C(C)C)c3ncc(C)cc23)nc2c(C(=O)NC3CCC3)cnn12 [I-256] | < 50 | < 50 | 0.2 to 1
8 | CNc1cc(Nc2cccn(-c3ccc(OC)cn3)c2=O)nc2c(C(=O)NC3CC3)cnn12 [I-264] | < 50 | < 50 | 0.2 to 1
9 | CNc1cc(Nc2cccn(CCOC)c2=O)nc2c(C(=O)N[C@H]3C[C@H]3F)cnn12 [I-268] | < 50 | < 50 | < 0.2

Now from value to compound:

Row | inhibition at 10 µM (JAK2 kinase domain (JH1)) [%] | inhibition at 10 µM (Tyk2 kinase domain (DH1)) [%] | Kd [1] [nM] | SMILES
10 | < 50 | < 50 | 0.2 to 1 | CNc1cc(Nc2cccnc2O[C@H]2CC[C@H](O)CC2)nc2c(C(=O)NC3CC3)cnn12 [I-231]
11 | < 50 | < 50 | < 0.2 | CNc1cc(Nc2cccnc2O[C@H]2CC[C@H](O)CC2)nc2c(C(=O)NC3CCC3)cnn12 [I-232]
12 | < 50 | < 50 | 0.2 to 1 | CNc1cc(Nc2cccnc2O[C@H]2CC[C@H](OC)CC2)nc2c(C(=O)NC3CC3)cnn12 [I-247]
13 | < 50 | < 50 | 0.2 to 1 | CNc1cc(Nc2cccnc2O[C@H]2CC[C@H](OC)CC2)nc2c(C(=O)NC3CCC3)cnn12 [I-248]
14 | < 50 | < 50 | < 0.2 | CNc1cc(Nc2cccnc2O[C@H]2CC[C@H](OC)CC2)nc2c(C(=O)N[C@H]3C[C@H]3F)cnn12 [I-249]
15 | < 50 | < 50 | < 0.2 | CNc1cc(Nc2cc(C)cn(-c3ccn(C)n3)c2=O)nc2c(C(=O)NC3CCC3)cnn12 [I-251]
16 | < 50 | < 50 | 1 to 10 | CNc1cc(-c2cn(C(C)C)c3ncc(C)cc23)nc2c(C(=O)NC3CC3)cnn12 [I-252]
17 | < 50 | < 50 | 0.2 to 1 | CNc1cc(-c2cn(C(C)C)c3ncc(Cl)cc23)nc2c(C(=O)NC3CC3)cnn12 [I-253, 5-(5-chloro-1-isopropyl-1H-pyrrolo[2,3-b]pyridin-3-yl)-N-cyclopropyl-7-(methylamino)pyrazolo[1,5-a]pyrimidine-3-carboxamide]
18 | < 50 | < 50 | 0.2 to 1 | CNc1cc(-c2cn(C(C)C)c3ncc(C)cc23)nc2c(C(=O)N[C@H]3C[C@H]3F)cnn12 [I-257]
19 | < 50 | < 50 | 0.2 to 1 | [2H]C([2H])([2H])Oc1ncc(C)cc1Nc1cc(NC)n2ncc(C(=O)NC3CCC3)c2n1 [I-260, N-cyclobutyl-5-((2-(methoxy-d3)-5-methylpyridin-3-yl)amino)-7-(methylamino)pyrazolo[1,5-a]pyrimidine-3-carboxamide]
20 | < 50 | < 50 | < 0.2 | CNc1cc(Nc2cccn(CCOC)c2=O)nc2c(C(=O)NC3CC3)cnn12 [I-267]
